The results in this text go back to PMC9007951, “Systematically evaluating DOTATATE and FDG as PET immuno-imaging tracers of cardiovascular inflammation” (Scientific Reports, 2022).

A short description of series [1]: Ex vivo gamma counting of whole aorta after PET/CT. It is filed as in vivo, mice. The following applies: female, mouse, iv, 5.55 MBq, total radioactivity, median, N = 4. As for the experimental part: S1A) to evaluate the tracer’s biodistribution. After euthanasia, an insulin syringe was used to collect blood samples from the right ventricle. Blood samples were used for the establishment of pharmacokinetics profile. Mice were then perfused with 20 mL of phosphate-buffered saline (PBS) and tissues of interest (heart, aorta, bone marrow, spleen, liver, stomach, bladder, kidneys, intestines, lungs, adrenal gland, muscles and pancreas) were harvested. Tissues were blotted for gamma counting on a Wizard2 2480 automatic gamma counter (Perkin Elmer, Waltham, MA). Values were corrected for decay and normalized to tissue weight to express radioactivity concentration as percentage injected dose per gram (%ID/g). […] To investigate the tracer’s distribution within different blood compartments, after gamma counting, 100 μL of blood were spun down at 2000 g for 15 min at 4 °C. Plasma (supernatant) and cells (pellet) were gamma counted and expressed as percentage of total activity. The remainder of the blood was separated using Lymphoprep density gradient medium (Nycomed Pharma, Zurich, Switzerland) following manufacturer’s instructions. Percentage of activity in mononuclear and polynuclear cells was calculated. […]

Series [2] in a line: [^64Cu]Cu-DOTATATE distribution in blood fractions (plasma vs cells). It is filed as in vivo, mice. The following applies: 120 min after radiotracer injection, mean ± SEM, N = 5. The method, then:
Wild-type and atherosclerotic animals were injected with approximately 1.85 MBq of [^64Cu]Cu-DOTATATE and euthanized at either 1, 5, 15, 30, 60 or 120 min after injection (Supplementary Fig. S1A) to evaluate the tracer’s biodistribution. After euthanasia, an insulin syringe was used to collect blood samples from the right ventricle. Blood samples were used for the establishment of pharmacokinetics profile. Mice were then perfused with 20 mL of phosphate-buffered saline (PBS) and tissues of interest (heart, aorta, bone marrow, spleen, liver, stomach, bladder, kidneys, intestines, lungs, adrenal gland, muscles and pancreas) were harvested. Tissues were blotted for gamma counting on a Wizard2 2480 automatic gamma counter (Perkin Elmer, Waltham, MA). Values were corrected for decay and normalized to tissue weight to express radioactivity concentration as percentage injected dose per gram (%ID/g). […] To investigate the tracer’s distribution within different blood compartments, after gamma counting, 100 μL of blood were spun down at 2000 g for 15 min at 4 °C. Plasma (supernatant) and cells (pellet) were gamma counted and expressed as percentage of total activity. […] Percentage of activity in mononuclear and polynuclear cells was calculated.

A short description of series [3]: Blood half-life of [^68Ga]Ga-DOTATATE, gamma counting of venous blood, two-phase decay fit. It is filed as in vivo, New Zealand White rabbits. As for the experimental part: Adopting a translational approach, the rabbit studies were performed with the [^68Ga]Ga-labeled tracer, which is already being used in the clinic. [^68Ga]Ga-DOTATATE was purchased from Advanced Accelerator Applications (AAA, Millburn, NJ, USA). To determine its pharmacokinetics, three atherosclerotic rabbits and two healthy controls were injected with approximately 190 MBq of [^68Ga]Ga-DOTATATE. Venous blood was sampled at 1, 5, 10, 15, 20, 30, 60, 120, 180, 240 and 300 min after injection through the ear vein. Samples were weighed and gamma counted. Blood half-life data were fitted using a two-phase decay non-linear regression using GraphPad Prism v8.4.3 (Supplementary Table S1). To investigate the tracer blood distribution, blood samples were centrifuged at 2000 g for 15 min at 4 °C to determine the radioactivity concentration in the plasma and cellular fractions. To analyze [^68Ga]Ga-DOTATATE biodistribution, all rabbits were euthanized after the last imaging time-point using an injection of pentobarbital 100 mg/kg and exsanguination of the portal vein. Rabbits were extensively perfused with 1000 mL of saline. Following, tissues (blood, heart, aorta, liver, kidney, skeletal muscle, small and large intestine, fat, stomach, pancreas and bladder) were harvested, weighed and gamma counted.

Broadly, the tissue uptake is the share of the injected amount in each gram of the tissue. For `C[C@@H](O)[C@H](NC(=O)[C@@H]1CSSC[C@H](NC(=O)[C@@H](Cc2ccccc2)NC(=O)CN2CCN(CC(=O)O)CCN(CC(=O)O)CCN(CC(=O)O)CC2)C(=O)N[C@@H](Cc2ccc(O)cc2)C(=O)N[C@H](Cc2c[nH]c3ccccc23)C(=O)N[C@@H](CCCCN)C(=O)N[C@@H]([C@@H](C)O)C(=O)N1)C(=O)O` [[^64Cu]Cu-DOTATATE, metal not drawn], the tissue uptake in series [1] (atherosclerotic Apoe^−/− mice after PET/CT) was 7.4 %ID/g; in series [1] (control C57Bl/6 mice after PET/CT), 3.5 %ID/g. Moreover, the “blood radioactivity contained in plasma” value in series [2] (atherosclerotic Apoe^−/− mice) amounted to 88.7 ± 0.9%; in series [2] (control C57Bl/6 mice), 83.4 ± 0.6%.
With `C[C@@H](O)[C@H](NC(=O)[C@@H]1CSSC[C@H](NC(=O)[C@@H](Cc2ccccc2)NC(=O)CN2CCN(CC(=O)O)CCN(CC(=O)O)CCN(CC(=O)O)CC2)C(=O)N[C@@H](Cc2ccc(O)cc2)C(=O)N[C@H](Cc2c[nH]c3ccccc23)C(=O)N[C@@H](CCCCN)C(=O)N[C@@H]([C@@H](C)O)C(=O)N1)C(=O)O` [[^68Ga]Ga-DOTATATE, metal not drawn], in series [3] (athero4mo rabbits, N = 3), the “%fast” value is listed as 53.17%, the “%slow” value is 46.83%, the “Weighed t1/2 (weighted half-life)” value worked out at 53.66 min and the t1/2 fast is 19.17 min. Also, the t1/2 slow in series [3] (athero4mo rabbits, N = 3) came to 92.82 min. Besides, in series [3] (control rabbits, N = 2), the “%fast” value stood at 39.7%, the “%slow” value came out at 60.3%, the “Weighed t1/2 (weighted half-life)” value came out at 21.17 min and the t1/2 fast was 3.419 min. In series [3] (control rabbits, N = 2), this molecule gave a t1/2 slow of 32.86 min.
